Experimental data published in patent US9750728B2, “Method and pharmaceutical composition for inhibiting PI3K/AKT/mTOR signaling pathway” (TARGETED THERAPEUTICS, LLC, priority 2012, dated 2017).

Columns and labels:
Format in all cases: cell-based
[1] = tested on: IRS-1; assay: Immunoblot analysis of IRS-1 (protein, phosphorylation, half-life, p85 coimmunoprecipitation)
[2] = tested on: Panc-1; assay: Colony formation assay (clonogenic assay)
Experimental: 1.2. Colony formation assay (clonogenic assay) was used to analyze the effect of ZPP or Y29794 on cancer cell survival. 10^3 Panc-1 cells were plated in 100 mm petri dish in triplicate fed with 10 ml of DMEM containing 10% FBS. The cells were then treated by ZPP for 7 days and cultured for additional three weeks. Cells were then rinsed three times with PBS, fixed with 100% ethanol for 15 min, and stained with 2% crystal violet ethanol solution. The stained colonies were counted. All the results are statistically analyzed by one way ANOVA and two tailed t-test.

[3] = tested on: Capan-1; assay: MTT cell viability assay; details: Capan-1, different doses, 4 days
Experimental: (§1) 1.1. ZPP and Y29794 induces cytotoxicity to cancer cells by MTT analysis of cell viability. Cells were placed in 96-well plates (3×10^3 cells/well) in octuplicate. The cells were then treated with vehicle or different doses of ZPP for 4 days. Cells were then loaded with 1.2 mM MTT (4,5-Dimethylthiazol-2-vn-2,5-diphenvltetrazolium bromide, a yellow tetrazole) in phenol red-free medium for 4 hours. The cells were then lysed in 10% SDS/0.01M HCL. MTT absorbance (570 nm spectrum) was measured by a microplate reader. The relative absorbance is normalized to the control (vehicle-treated) to indicate relative cell viability. ZPP was purchased from Biomol (Plymouth Meeting, Pa., USA). MTT was purchased from Sigma-Aldrich. Panc-1 and Capan-1 pancreatic cancer cell line, MCF7 and T47D breast cancer cell lines, A549 and HI 703 lung cancer Cell lines were purchased from American Type Culture Collection (ATCC, USA) preparation of pancreatic cancer cell line PK-9 have been disclosed, e.g., Kobari M et al, (1986) Tohoku J Exp Med. 150: 231-248; Etoh T et al, (2003) Clin Cancer Res 9; 1218; Arafat H. et al, (2011) Surgery 150 (2): 306-315. Cells were grown in Dulbecco's Modified. Eagle's (DMEM) medium (Invitrogen, Carlsbad, Calif.) containing 10% fetal bovine serum (FBS) (Hyclone, purchased from Thermo Fisher Scientific, Inc). […] In similar experiments, the cells were treated with different doses of Y29794 for 4 days and analyzed for MTT absorbance. Y29794 oxalate was purchased from Tocris Biosciences (Bristol, UK).

[4] = tested on: A549; assay: MTT cell viability assay; details: A549, different doses, 4 days
Experimental: as §1

[5] = tested on: AsPC-1; assay: MTT cell viability assay; details: AsPC-1, different doses, 4 days
Experimental: as §1

[6] = tested on: AKT phosphorylation (S473); assay: Immunoblot analysis of AKT phosphorylation in cancer cells; details: for AKT phosphorylation: two days; for AKT phosphorylation (S473): ZPP 400 μM or Y29794 1 μM; for rapamycin-induced increase in phosphorylation of AKT: rapamycin 10 nM plus ZPP 200 μM or Y29794 0.5 μM, 24 hours
Experimental: 2.2 Immunoblot analysis of gene silencing of PRCP or PREP in cancer cells. Mouse anti-PRCP antibody was purchased from Abcam (Cambridge, Mass., USA). Goat anti-PREP antibody was purchased from R&D Systems (Minneapolis, Minn., USA). Mouse anti-R-actin antibody antibodies was from Santa Cruz Biotechnology (Santa Cruz, Calif., USA). Panc-1 pancreatic cancer cells and MCF7 breast cancer cells were cultured to 80% confluence, cells were rinsed three times with pre-cooled PBS, 500 μl of lysis buffer (150 mmol/L Nacl, 1% Triton-x-100, 50 mmol/l TrispH8.0, 1 mmol/L PMSF, 1 ug/L aprotinin, 1 ug/L leupeptin, 1 ug/L peptain) was added to the cells. Cells were scraped and transferred to a centrifuge tube with a pipette. The lysates were spun in a microcentrifuge at maximal speed for 10 minutes at 4° C. to get rid of the insoluble fraction. Protein concentration was determined by Bradford assay. For immunoprecipitation: 2-5 ug protein-specific antibodies were added to 250-500 ug of lysates in a tube and incubated on an ordital shaker 4° C. for 2-4 hours with moderate shaking, then 20 ul Protein G beads (Santa Cruz Biotechnology (Santa Cruz, Calif., USA.) were added and the mixture was incubated with moderate shaking for another hour. After washing the beads in lysis buffer five times, the immunoprecipitates were boiled in 2× Laemmli sample buffer (50 mmoL/L Tris-HCL (pH8.0), 100 mmoL/L DTT, 2% SDS, 0.1% bromophenol blue, 10% glycerol) for five minutes. The proteins were separated by conventional SDS-polyacrylamide gel electrophoresis (SDS-PAGE) electrophoresis and transferred to Amersham Hybond-P PVDF membrane (GE Company, Pittsburgh, Pa., USA). For immunoblot, the membrane was blocked in 2% BSA in TBST buffer (Tris 1.21 g+NaCl 5.84 g+800 ml H2O adjusted to pH 8.0 with HCl) for one hour and then incubated with primary antibodies in TBST at room temperature (22-25° C.) for 2 hours. After washing three times with TBST, the membrane was incubated with HRP-conjugated secondary antibodies for 0.5 hours at room temperature. After washing the membrane five times with TBST (5 minutes/each), the membrane was incubated with ECL chromogenic reagent (GE Company, Pittsburgh, Pa., USA) for 1-5 minutes. The blots were exposed to films in darkroom for 1-5 minute. The films were developed in an automatic X-OMAT Developer (KODAK, Rochester, N.Y., USA). […] PREP gene silencing (PREP KD) or PRCP gene silencing (PRCP KD) or gene silencing both PRCP and PREP (DKD) in MCF7 cells reduces expression of PREP and/or PRCP proteins compared with control cells (control) (FIGS. 6B & 6C).
3.1 Reduction in AKT phosphorylation is examined by immunoblot using rabbit anti-phospho-AKT […] and rabbit anti-pan AKT antibodies purchased from Cell Signaling Technology (Danvers, Mass., USA) in the cells with gene silencing of PRCP and/or PREP or treated with ZPP or Y29794. Reduction in PRCP and/or PREP is shown by Western blot and quantitative PCR described in 2.2.

CC(C)c1ccc(C(=O)c2cccs2)c(SCCCCCCCCN(C)C)n1 [Y29794, [2-[8-(dimethylamino)octylsulfanyl]-6-propan-2-ylpyridin-3-yl]-thiophen-2-ylmethanone]
IRS-1 protein ([1]; Capan-1, Y29794 1 μM (FIG. 19A)): reduces | IRS-1 protein ([1]; PK-9, Y29794 1 μM (FIG. 19A)): reduces | cell survival (colony formation) ([2]; Panc-1, Y29794 25 nM in combination with rapamycin): significantly (P<0.01) decreased | cell colonies formed at 21 days, combination ([2]; Panc-1, various concentration of rapamycin with 25 nM Y29794, 7 days (FIG. 16C legend)): synergistic reduction | MTT absorbance (relative cell viability) [3]: dose-dependent cytotoxicity | MTT absorbance (relative cell viability) [4]: dose-dependent cytotoxicity | MTT absorbance (relative cell viability) [5]: dose-dependent cytotoxicity | AKT phosphorylation ([6]; MCF7, Y29794 0.5 μM, vs vehicle (ethanol)): significantly decreased | AKT phosphorylation (S473) ([6]; MCF7, vs vehicle (FIG. 8B, 8E legend)): reduced | rapamycin-induced increase in phosphorylation of AKT ([6]; MCF7): blocked | AKT phosphorylation ([6]; PK-9, ZPP 200 μM or Y29794 0.5 μM, vs vehicle): significantly decreased | AKT phosphorylation (S473) ([6]; PK-9, vs vehicle (FIG. 8A, 8F legend)): reduced | AKT phosphorylation ([6]; Panc-1, ZPP 200 μM or Y29794 0.5 μM, vs vehicle): significantly decreased | phosphorylated AKT (S473) ([6]; Panc-1, ZPP 400 μM alone (FIG. 10A legend) or Y29794 0.5 μM alone (FIG. 11A legend)): reduced | AKT phosphorylation (S473) ([6]; Panc-1, vs vehicle (FIG. 8C, 8D legend)): reduced | rapamycin-induced increase in phosphorylation of AKT ([6]; Panc-1): blocked
